# Results as given in patent US8790712B2, “Constitutional function-improving agents” (Cosmo Oil Co., Ltd., priority 2004, dated 2014).
# Experiments:
# [1] = system: broiler primary chicks (Chunky); experiment: Body weight of broiler chicks fed ALA hydrochloride for 7 weeks (Example 9); type: in vivo, chick
# Description: (§1) A total of 300 chicks, 150 chicks for females and males respectively, of broiler primary chicks (Chunky) were purchased. After the purchase, chicks having abnormality (weakness or dwarf) were excluded, and the rest were equipped with wing belts for individual identification and their body weights were individually measured. […] Using 15 female or male chicks (30 chicks in total) as 1 group, they were put into a Chick Gird arranged in a closed type barn, and warmed by arranging an infrared ray lamp for animal use. The Chick Gird was expanded along with the growth of chicks. The feed and drinking water were constantly provided. The test groups were set to a total of 3 groups containing a control group in which a control feed (a standard testing feed SDB No. 1 was used from the neonatal to 3 weeks old, or a standard testing feed SDB No. 2 from 3 weeks old to 7 weeks old, (both manufactured by Nippon Formula Feed Mfg Co., Ltd., Table 9) without adding ALA hydrochloride is provided, and 2 test groups of ALA-10 ppm treated group and ALA-50 ppm treated group in which 10 ppm or 50 ppm of ALA hydrochloride is added to the feed and provided, and 3 repetition plots were arranged for each group. The number of chicks to be tested in each test group was as shown in Table 10. The test period was set to 7 weeks (7 weeks old) from the neonatal (start of the added feed provision), and total body weight of females or males was measured for each repetition plot at the time of the neonatal and at intervals of 1 week thereafter. In addition, about 2 ml of blood was collected from a brachial vein (basilic vein) of each of 18 chicks (3 female or male chicks/repetition) of each group at 3 weeks old and 7 weeks old, and about 1.5 ml thereof was subjected to a coagulation preventing treatment using heparin-lithium salt and then the blood plasma was separated to inspect the items of LDH, GOT (AST), γ-GTP, ALP, total protein, albumin, globulin, total cholesterol, triglyceride, glucose, uric acid, total bilirubin, uric acid, creatinine, calcium and inorganic phosphorus.
# [2] = system: γ-GTP (gamma glutamyl transpeptidase); experiment: Blood plasma γ-GTP of broiler chicks (Example 9); type: in vivo, chick
# Description: as §1
# [3] = system: porphobilinogen deaminase (PBGD); experiment: PBGD activity of blood (Example 5); type: in vivo, mouse; conditions: male mice, 10 mg/kg orally once a day for 7 days
# Protocol: Mice (35 to 45 weeks old, BALB/cAJc1) preliminary raised for 1 week were injected with 10 mg of ALA hydrochloride per 1 kg mouse body weight once a day for 7 days continuously. ALA hydrochloride was adjusted to a concentration of […] with distilled water and orally administered to the mice. After the test, each mouse was sacrificed to collect mouse blood, and ALA dehydrase (ALAD) activity (the activity of ALA in which it is dimerized and thereby forms porphobilinogen (hereinafter referred to as “PBG”) as one molecule pyrrole substance) and porphobilinogen deaminase (PBGD) activity (the activity to convert from PBG to hydroxymethylbilane) per 1 ml of the blood were measured. […] To 0.02 ml of heparin-treated mouse whole blood, 0.33 ml of distilled water was added, the mixture was adjusted to a total volume of 0.5 ml by adding thereto 0.05 ml of 0.5 M Na-phosphate buffer (pH 6.4), 0.05 ml of 0.1 M DTT (containing 1 mM ZnSO4) and 0.05 ml of 50 mM ALA hydrochloride and was kept at 37° C. for 30 minutes, the reaction was stopped by adding 0.5 ml of 1 M trichloroacetic acid, and then Ehrlich reagent was added to a supernatant after centrifugation at 3000 rpm in the same volume, and precisely 10 minutes thereafter, absorbance at 553 nm, which is a characteristic absorbance of the compound formed by the reaction of Ehrlich reagent with PBG, was measured (OD) using a spectrophotometer. […]
# [4] = system: Mice (35 to 45 weeks old, BALB/cAJc1); experiment: Rotary exercise quantity measuring device, rotations within 16 hours (Example 6); type: in vivo, mouse
# Protocol: Mice (35 to 45 weeks old, BALB/cAJc1) preliminary raised for 1 week were injected with 10 mg of ALA hydrochloride per 1 kg mouse body weight once a day for 7 days continuously. ALA hydrochloride was adjusted to a concentration of […] with distilled water and orally administered to the mice. The mouse was put into a rotary exercise quantity measuring device (rotating basket: 200 mm in diameter×50 mm in width, raising basket: W 90 mm×D 220 mm×H 90 mm, manufactured by Shinano Seisakusho) and the number of rotation within 16 hours was measured before and after the test. The test was carried out using 1 mouse per 1 rotary exercise quantity measuring device, and carried out on female mice using untreated 5 animals and ALA-treated 5 animals as 1 plot, and the values were shown by the average value. It was confirmed that the rotation quantity was large and the exercise capacity was improved in the plot treated with ALA.
# [5] = ALA-treated groups, 10 ppm or 50 ppm in feed, 7 weeks
# [6] = within 16 hours, after 7 days of 10 mg/kg oral dosing
# [7] = within 16 hours, before the 7 days of 10 mg/kg oral dosing
smiles,measurement,setting,value
"NCC(=O)CCC(=O)O [ALA, 5-aminolevulinic acid]","Growth (g), body weight","[1]; 10 ppm in feed, 1 week",166.3 g
same,"Growth (g), body weight","[1]; 10 ppm in feed, 2 week",442.0 g
same,"Growth (g), body weight","[1]; 10 ppm in feed, 3 week",817.2 g
same,"Growth (g), body weight","[1]; 10 ppm in feed, 4 week",1402.7 g
same,"Growth (g), body weight","[1]; 10 ppm in feed, 5 week",2063.9 g
same,"Growth (g), body weight","[1]; 10 ppm in feed, 6 week",2736.4 g
same,"Growth (g), body weight","[1]; 10 ppm in feed, 7 week",3420.9 g
same,"Growth (g), body weight","[1]; 10 ppm in feed, neonatal",37.8 g
same,"Growth (g), body weight","[1]; 50 ppm in feed, 1 week",169.1 g
same,"Growth (g), body weight","[1]; 50 ppm in feed, 2 week",436.8 g
same,"Growth (g), body weight","[1]; 50 ppm in feed, 3 week",807.7 g
same,"Growth (g), body weight","[1]; 50 ppm in feed, 4 week",1400.8 g
same,"Growth (g), body weight","[1]; 50 ppm in feed, 5 week",2036.7 g
same,"Growth (g), body weight","[1]; 50 ppm in feed, 6 week",2731.5 g
same,"Growth (g), body weight","[1]; 50 ppm in feed, 7 week",3403.3 g
same,"Growth (g), body weight","[1]; 50 ppm in feed, neonatal",37.7 g
same,General conditions during the test period,[1]; [5],no abnormality was found in the general conditions
same,Raising ratio and pathologic autopsy findings,[1]; [5],an abnormality considered to be due to its addition was not found
same,γ-GTP (IU/l),"[2]; 10 ppm in feed, 3 weeks old",29.7 IU/l
same,γ-GTP (IU/l),"[2]; 10 ppm in feed, 7 weeks old",29.7 IU/l
same,γ-GTP (IU/l),"[2]; 50 ppm in feed, 3 weeks old",30.0 IU/l
same,γ-GTP (IU/l),"[2]; 50 ppm in feed, 7 weeks old",32.7 IU/l
same,PBGD activity,[3],67.36 nmol URO/ml RBC/h
same,Increasing ratio before and after the test (%),"[4]; rotary exercise, 10 mg/kg orally once a day for 7 days",125%
same,"Distance (m), after the test",[4]; [6],8889 m
same,"Number of rotation, after the test",[4]; [6],14155
same,"Distance (m), before the test",[4]; [7],7095 m
same,"Number of rotation, before the test",[4]; [7],11297
